Measurements from patent publication US6069128A, “Transiently membrane-permeable derivatives converted intracellularly into active peptides” (Universite Laval, priority 1998, dated 2000).
Where no end group is shown, it is not given here.

Tested on: IL-8-induced leukocyte migration
Assay: IL-8-induced leukocyte migration into the mouse air pouch
Type: in vivo
Settings: BALBc mice; 100 μg peptide intravenously in the tail one hour before subdermal IL-8 (1 μg); leukocytes collected two and a half hours after IL-8
Experimental: In the second series of experiments, inhibition of leukocyte migration in BALBc mice was chosen as an in vivo assay as a first step towards the use of the modified peptides in humans. 100 ug of the DRYLAIVHAT/AM peptide, diluted in cyclodextrane or polythelene glycol, was injected intravenously in the tails of BALBc mice one hour prior to the subdermal injection of IL-8. In the presence of the modified peptide, leukocyte migration was inhibited when compared to the migration observed in untreated animals (FIG. 4).
In FIG. 4, the peak increase in leukocyte migration induced by IL-8 is shown. The peptides (100 μg) (native or transformed) were injected intravenously in the tails of the BALBC mice one hour prior to IL-8 injection. The basal cell number was 0.25×10^6 cells and the increases represent the differences between the basal and the peak levels of the leukocytes collected two and a half hours after IL-8 stimulation. The data represent the mean ±SEM of the number of experiments indicated in parenthesis.

Q: With “DRYLAIVHAT/AM: acetoxymethyl ester (AM) membrane-permeable derivative of the peptide from the second intracellular loop of the interleukin 8 type A receptor (also: acetoxymethyl ester (AM) derivative)” as the substance, how does the “inhibition of leukocyte migration induced by IL-8” value read?
A: Its value is “inhibited”.
